Experimental data reported in US20250062040A1, “COMPUTER-BASED SYSTEMS FOR ACQUIRING AND ANALYZING OBS[…] DATA” (priority 2021, published 2025).

Tests used:
[1] = core temperature by rectal temperature measurement; format: in vivo, mice; settings: 1 mg/kg intraperitoneally; before injection vs just prior to thermal camera recording
Procedure: In some embodiments, a validation experiment can test whether this method may effectively detect changes in body temperature induced by drugs from thermal videos. In one such test, two groups of mice can be treated with chlorpromazine 1 mg/kg (n=13) or vehicle (n=14) intraperitoneally, and tested after 15 minutes under the thermal camera system. An average change of 0.9 degree Celsius in core temperature was observed by measuring rectal temperature of animals before injection and just prior to their thermal camera recording.

[2] = eye temperature by automated thermographic system of behavioral platform; format: in vivo, mice; settings: 1 mg/kg intraperitoneally, tested after 15 minutes, 45-minute session, vs vehicle, FIG. 37
Description: In some embodiments, with regard to image calibration, in an experimental session, actual Peltier temperatures may be logged and saved along with the thermal camera video. The logged Peltier temperatures in Celsius can be paired to the optical density (OD) levels measured at the two Peltier ROIs in each corresponding frame, so that a linear calibration curve can be used to convert the OD of measured eye ROIs to degrees Celsius.
In some embodiments, the subject body, such as a mouse, can be segmented based on the optical density distribution on each frame. The contour of the mouse can be masked by finding the largest eight-connected objects in the binarized image as shown in FIG. 36. […] The size of the eye region relative to the mask and shape properties such as ‘Eccentricity’ (ratio of the distance between the foci of the ellipse and its major axis length) and ‘Solidity’ (proportion of the pixels in the convex hull that are also in the region, computed as Area/ConvexArea) can be measured to filter out false positives, when those parameters may be outside of the range learned from manually annotated ground truth examples.
In some embodiments, with regard to feature extraction, the average OD of automatically detected eye ROIs can be converted to Celsius based on the calibration curve. […]

[3] = pEEG spectral power signature; format: in vivo; settings: 2-h post-injection, normalized against baseline, different doses, FIG. 21
Procedure: In some embodiments, pEEG may be recorded 1 hour before drug administration and for 2 hours after drug administration from all recorded brain regions simultaneously. To maximize the clinical translatability of a pEEG preclinical database, the frontal cortex and parietal cortex can be selected without limitation. ECoG EEG from these electrodes may be shown to offer direct rodent-to-human translation. Additionally, the hippocampus and striatum can be targeted for indwelling local field potential (LFP) recordings to investigate pharmacological responses on brain regions known to be innervated by different neurotransmitter systems.
In some embodiments, pEEG data consumed by a behavioral platform classier or other machine learning model can be processed first to remove artifacts. […] The average standard frequency bands are shown in Table IV listing the analyzed standard frequency bands. […]
In some embodiments, a normalization against the baseline pre-drug may be convenient, although other types of normalization may be used without limitation. pEEG and accelerometer spectrums can be normalized to the corresponding mean value x_mean during the pre-dosing interval [0, 1 hour](baseline): x_norm=(x−x_mean)/x_mean. For both pEEG and accelerometer data, the post-dosing features (obtained during the 2-hour post-dosing period) can be expressed as percent change from pre-dose baseline. […]

Male SD rats = experiment: rat forced swim test, long lasting antidepressant-like effects; format: in vivo; settings: vs vehicle group, p<0.05; IP 24 H prior to testing; ketamine 10 mg/kg, Enantiomer I2 30 mg/kg
Procedure: Male SD rats from Envigo (IN) were used in the study. Ketamine (10 mg/kg) was dissolved in saline and administered IP at a dose volume of 1 ml/kg 24 H prior testing. Enantiomer I2 was dissolved in PBS and administered IP at a dose volume of 1 ml/kg 24 H prior to testing. Videos were scored by an observer blinded to the treatment and frequency of immobility, climbing and swimming were measured. Data were analyzed by ANOVA followed by post hoc analysis where appropriate.

CN(C)CCCN1c2ccccc2Sc2ccc(Cl)cc21 [chlorpromazine]
average change in core temperature (rectal temperature) [1]: 0.9 degree Celsius
estimated eye temperature [2]: decrease of estimated eye temperature

CNC1(c2ccccc2Cl)CCCCC1=O (centres unmarked) [ketamine]
change in pEEG power of high frequencies (gamma) [3]: dose-dependent short-term increase
frequency of immobility in the forced swim (Male SD rats): reduced immobility
frequency of swimming in the forced swim (Male SD rats): increased swimming
